Measurements taken from article PMC3075274, “Expression and Activity of a Novel Cathelicidin from Domestic Cats” (PLoS ONE, 2011).
Converted amounts (≈) assume the structure as drawn. Read-outs that look alike come from different tables or passages of the source. Where no end group is shown, it is not given here.

Legend:
[1] = system: Staphylococcus pseudintermedius (clinical isolate); details: radial diffusion assay, 10 mM sodium phosphate pH 7.4, peptide 4-1000 ng/µl in 0.05% acetic acid, 3 h 37°C then overlay overnight
Protocol: (§1) A radial diffusion antimicrobial assay was used to assess the antimicrobial activity of feCath and LL-37 [24]. Briefly, overnight bacterial cultures were seeded into fresh tryptic soy broth (TSB). Bacteria was grown to an optical density of 0.2 at A600, pelleted and resuspended in an equal volume of 10 mM sodium phosphate buffer, pH 7.4. Resuspended bacteria were added to underlay minimal-media agarose, and peptide, at various concentrations (1000 ng/µl, 333 ng/µl, 111 ng/µl, 37 ng/µl, 12 ng/µl and 4 ng/µl, dissolved in 0.05% acetic acid), was instilled into adjacent punch-wells. Buffer alone (0.05% acetic acid) was used as the negative control. After 3 hours of incubation at 37°C, overlay nutrient rich agarose was added and allowed to incubate overnight. The following day, zones of clearance were measured. To quantitate zones of clearance, the diameter of the agarose punch (3 mm) was subtracted from the diameter of antimicrobial clearance (in mm), and the resulting number was multiplied by 10.

[2] = system: Salmonella enterica serovar Typhimurium (IR715)
Protocol: as §1

[3] = system: E. coli D31; details: radial diffusion assay, 10 mM sodium phosphate pH 7.4, peptide 4-1000 ng/µl in 0.05% acetic acid, 3 h 37°C then overlay overnight
Protocol: as §1

[4] = system: Listeria monocytogenes; details: radial diffusion assay, 10 mM sodium phosphate pH 7.4, peptide 4-1000 ng/µl in 0.05% acetic acid, 3 h 37°C then overlay overnight
Protocol: as §1

[5] = system: HaeIII digested Phi-X174 phage DNA; experiment: DNA binding assay (gel electrophoresis, retarded migration); details: Phi-X174 HaeIII DNA 20 ng/µl; peptide 10, 30, 100 ng/µl; 5 min room temperature, 0.05% acetic acid; agarose gel, ethidium bromide
Protocol: Hae-III digested phage DNA Phi-X174 (20 ng/µl) (Roche) was incubated with varying amounts of LL-37, feCath and magainin (10 ng/µl, 30 ng/µl and 100 ng/µl) for 5 min at room temperature. The entire reaction was resolved using agarose gel electrophoresis (1% w/v) and stained with ethidium bromide.
Figure 6 Gel electrophoresis of DNA binding assay. A DNA ladder (HaeIII digested Phi-X174, 200 ng) was incubated with increasing concentrations of peptide (100 ng, 300 ng, 1000 ng) for 5 minutes in 0.05% acetic acid at room temperature. The reaction mixture was resolved using agarose gel electrophoresis ([…]). Arrow indicates retarded migration of Phi-X174 DNA into the gel.

Compound	MIC [1] [µg/mL]	MIC ([2]; Salmonella enterica serovar Typhimurium (IR715), radial diffusion assay, 10 mM sodium phosphate pH 7.4, peptide 4-1000 ng/µl in 0.05% acetic acid, 3 h 37°C then overlay overnight) [µg/mL]	MIC [3] [µg/mL]	MIC [4] [µg/mL]	DNA binding (retardation of DNA migration into the gel) [5]	MIC ([2]; serovar Typhimurium (IR715, 3 h, pH 7.4)) [µg/mL]
CC[C@H](C)[C@H](NC(=O)[C@H](CCCCN)NC(=O)[C@H](CCC(=O)O)NC(=O)[C@H](CCCCN)NC(=O)[C@H](CO)NC(=O)[C@H](CCCCN)NC(=O)[C@H](CCCNC(=N)N)NC(=O)[C@H](Cc1ccccc1)NC(=O)[C@H](Cc1ccccc1)NC(=O)[C@H](CC(=O)O)NC(=O)CNC(=O)[C@H](CC(C)C)NC(=O)[C@@H](N)CC(C)C)C(=O)NCC(=O)N[C@@H](CCCCN)C(=O)N[C@@H](CCC(=O)O)C(=O)N[C@@H](Cc1ccccc1)C(=O)N[C@@H](CCCCN)C(=O)N[C@@H](CCCNC(=N)N)C(=O)N[C@H](C(=O)N[C@H](C(=O)N[C@@H](CCC(N)=O)C(=O)N[C@@H](CCCNC(=N)N)C(=O)N[C@H](C(=O)N[C@@H](CCCCN)C(=O)N[C@@H](CC(=O)O)C(=O)N[C@@H](Cc1ccccc1)C(=O)N[C@@H](CC(C)C)C(=O)N[C@@H](CCCNC(=N)N)C(=O)N[C@@H](CC(N)=O)C(=O)N[C@@H](CC(C)C)C(=O)N[C@H](C(=O)N1CCC[C@H]1C(=O)N[C@@H](CCCNC(=N)N)C(=O)N[C@H](C(=O)N[C@@H](CCC(=O)O)C(=O)N[C@@H](CO)C(=O)O)[C@@H](C)O)C(C)C)[C@@H](C)CC)C(C)C)[C@@H](C)CC [LL-37, reference compound]	15 (≈ 3.34 µM)	12 (≈ 2.67 µM)	5 (≈ 1.11 µM)	7 (≈ 1.56 µM)	–	–
Magainin	–	–	–	–	lacks this ability to bind DNA	–
QLGELIQQGGQKIVEKIQKIGQRIRDFFSNLRPRQEA [feCath]	–	–	21	–	–	29
